Assay: Free radical inhibiting activity in vitro (DPPH)
Type: biochemical
Conditions: 50 µM DPPH in ethanol, 30 minutes, room temperature, decrease in OD, solvent control subtracted
Protocol: A 50 µM solution of 1,1-diphenyl-2-picrylhydrazyl (DPPH) in ethanol is added for 30 minutes at room temperature to a tested sample. The drop in absorbance is then measured and the results are given as the percentage decrease in OD caused by the test compound relative to the solvent used. The tested products are dissolved in ethanol (except product according to Example 7 when DMSO was used); the results (solvent control subtracted) are given as % free radical inhibiting activity as described in table 2.

| Compound | Free radical inhibiting activity (dissolved in DMSO) [%] | Free radical inhibiting activity (dissolved in ethanol) [%] |
| --- | --- | --- |
| 1,3-bis-butyryloxy-11a-hydroxy-9-(3,5,7-tributyryloxy-4H-1-benzopyran-4-on-2-yl)-5a-(3,4-bisbutyryloxyphenyl)-5,6,11-hexahydro-5,6,11-trioxanaphtacene-12-one [Example 7] | 95 | – |
| CC(=O)Oc1ccccc1C(=O)Oc1cc(O)c2c(=O)c(OC(=O)c3ccccc3OC(C)=O)c(-c3ccc(OC(=O)c4ccccc4OC(C)=O)c(OC(=O)c4ccccc4OC(C)=O)c3)oc2c1 [Example 3, 3,7-bis-(2-acetylsalicyloyloxy)-2-(3,4-bis-(2-acetylsalicyloyloxy)phenyl)-5-hydroxy-chromen-4-one] | – | 82 |
| COc1cc(C=CC(=O)Oc2cc(O)c3c(=O)c(OC(=O)C=Cc4ccc(OCC=C(C)C)c(OC)c4)c(-c4ccc(OC(=O)C=Cc5ccc(OCC=C(C)C)c(OC)c5)c(OC(=O)C=Cc5ccc(OCC=C(C)C)c(OC)c5)c4)oc3c2)ccc1OCC=C(C)C [Example 8, 3-(O-prenylferuloyloxy)-2-(3,4-bis-(O-prenylferuloyloxy)phenyl)-7-(O-prenyl-feruloyloxy)-5-hydroxy-chromen-4-one] | – | 75 |
| O=c1c(O)c(-c2ccc(O)c(O)c2)oc2cc(O)cc(O)c12 [Quercetin] | – | 62 |

Source: patent EP2468741A1, “Novel quercetin derivatives, their preparation, pharmaceutical compositions containing them and their use” (Bel/Novamann International s.r.o., priority 2010, dated 2012)
